The assay has as its system human primary NOK. Nature of the assay: Replicative senescence / cumulative population doublings. It is filed as cell-based. The conditions noted are these: in the presence of rapamycin; estimated. The protocol:
NOK were plated in collagen coated LabTek chamber slides and treated with vehicle or 20 nM rapamycin for 3 days. Cells were then γ-irradiated or not, and further treated with vehicle or rapamycin for 24 h. For TUNEL assay cells were processed for staining immediately, for SA-β-gal cells were passed and assessed 4 days after plating. Apoptosis was detected using the CLICK-IT™ TUNEL ALEXA FLUOR™ 594 Imaging Assay (Life Technologies, Carlsbad, Calif.) and SA-β-gal activity was measured using the SA-β-gal kit (Cell Signaling Technology, Danvers, Mass.) according to the manufacturer's instructions. The proportion of positive cells was determined by fluorescence or transmission microscopy and quantified using ImageJ. Eight different fields containing approximately 60 cells each were quantified per condition. For the calculation of population doublings cells were cultured as described and treated with vehicle or 20 nM rapamycin. Population doublings were calculated every passage using the formula x=[log 10(NH/N1)]/log 10(2)] (Cristofalo et al., PNAS, 95, 10614-10619 (1998)), where N1 is the inoculum cell number and NH the cell harvest number. To yield the cumulated doubling doublings, the population doublings for each passage was calculated and then added to the population doubling levels of the previous passages.

We go through one molecule from patent US9278090B2, “Methods of preventing the development of mucositis and related disorders” (The United States of America, as represented by the …, priority 2012, dated 2016).

Regarding `CO[C@H]1C[C@@H]2CC[C@@H](C)[C@@](O)(O2)C(=O)C(=O)N2CCCC[C@H]2C(=O)O[C@H]([C@H](C)C[C@@H]2CC[C@@H](O)[C@H](OC)C2)CC(=O)[C@H](C)/C=C(\C)[C@@H](O)[C@@H](OC)C(=O)[C@H](C)C[C@H](C)/C=C/C=C/C=C/1C` [rapamycin], the “cells a single cell will give rise to before senescence” value was “around 10^17 cells”.
